# Results reported in ChEMBL document CHEMBL1268945, “Sequential cytotoxicity: a theory examined using a series of 3,5-bis(benzylidene)-1-diethylphosphono-4-oxopiperidines and related phosphonic acids” (Bioorg Med Chem Lett, 2010).
# Test system: HSC-3
# Experiment: Selectivity index, ratio of CC50 for normal cells to CC50 for human HSC3 cells
# Format: functional
row,SMILES,Selectivity Index
1,O=C1/C(=C/c2ccccc2)CN(P(=O)(O)O)C/C1=C\c1ccccc1,5.8
2,COc1ccc(/C=C2\CN(P(=O)(O)O)C/C(=C\c3ccc(OC)cc3)C2=O)cc1,31
3,CCOP(=O)(OCC)N1C/C(=C\c2ccc(OC)c(OC)c2)C(=O)/C(=C/c2ccc(OC)c(OC)c2)C1,4.5
4,O=C1/C(=C/c2ccccc2[N+](=O)[O-])CN(P(=O)(O)O)C/C1=C\c1ccccc1[N+](=O)[O-],6.9
5,CCOP(=O)(OCC)N1C/C(=C\c2ccc(C)cc2)C(=O)/C(=C/c2ccc(C)cc2)C1,5.4

# Test system: HL-60
# Experiment: Selectivity index, ratio of CC50 for normal cells to CC50 for human HL60 cells
# Format: functional
row,SMILES,Selectivity Index
1,O=C1/C(=C/c2ccccc2)CN(P(=O)(O)O)C/C1=C\c1ccccc1,12
2,COc1ccc(/C=C2\CN(P(=O)(O)O)C/C(=C\c3ccc(OC)cc3)C2=O)cc1,12
3,CCOP(=O)(OCC)N1C/C(=C\c2ccc(OC)c(OC)c2)C(=O)/C(=C/c2ccc(OC)c(OC)c2)C1,8.4
4,O=C1/C(=C/c2ccccc2[N+](=O)[O-])CN(P(=O)(O)O)C/C1=C\c1ccccc1[N+](=O)[O-],30
5,CCOP(=O)(OCC)N1C/C(=C\c2ccc(C)cc2)C(=O)/C(=C/c2ccc(C)cc2)C1,6.7

# Test system: not listed separately
# Experiment: Cytotoxicity against human HPLF cells
# Format: cell-based
row,SMILES,CC50 [µM]
1,O=C1/C(=C/c2ccccc2)CN(P(=O)(O)O)C/C1=C\c1ccccc1,7
2,COc1ccc(/C=C2\CN(P(=O)(O)O)C/C(=C\c3ccc(OC)cc3)C2=O)cc1,44
3,CCOP(=O)(OCC)N1C/C(=C\c2ccc(OC)c(OC)c2)C(=O)/C(=C/c2ccc(OC)c(OC)c2)C1,5.3
4,O=C1/C(=C/c2ccccc2[N+](=O)[O-])CN(P(=O)(O)O)C/C1=C\c1ccccc1[N+](=O)[O-],3
5,CCOP(=O)(OCC)N1C/C(=C\c2ccc(C)cc2)C(=O)/C(=C/c2ccc(C)cc2)C1,21

# Test system: HSC-4
# Experiment: Selectivity index, ratio of CC50 for normal cells to CC50 for human HSC4 cells
# Format: functional
row,SMILES,Selectivity Index
1,O=C1/C(=C/c2ccccc2)CN(P(=O)(O)O)C/C1=C\c1ccccc1,10
2,COc1ccc(/C=C2\CN(P(=O)(O)O)C/C(=C\c3ccc(OC)cc3)C2=O)cc1,17
3,CCOP(=O)(OCC)N1C/C(=C\c2ccc(OC)c(OC)c2)C(=O)/C(=C/c2ccc(OC)c(OC)c2)C1,13
4,O=C1/C(=C/c2ccccc2[N+](=O)[O-])CN(P(=O)(O)O)C/C1=C\c1ccccc1[N+](=O)[O-],22
5,CCOP(=O)(OCC)N1C/C(=C\c2ccc(C)cc2)C(=O)/C(=C/c2ccc(C)cc2)C1,4.8

# Test system: HSC-2
# Experiment: Cytotoxicity against human HSC2 cells
# Format: functional
row,SMILES,CC50 [µM]
1,O=C1/C(=C/c2ccccc2)CN(P(=O)(O)O)C/C1=C\c1ccccc1,0.77
2,COc1ccc(/C=C2\CN(P(=O)(O)O)C/C(=C\c3ccc(OC)cc3)C2=O)cc1,1.7
3,CCOP(=O)(OCC)N1C/C(=C\c2ccc(OC)c(OC)c2)C(=O)/C(=C/c2ccc(OC)c(OC)c2)C1,1.7
4,O=C1/C(=C/c2ccccc2[N+](=O)[O-])CN(P(=O)(O)O)C/C1=C\c1ccccc1[N+](=O)[O-],0.17
5,CCOP(=O)(OCC)N1C/C(=C\c2ccc(C)cc2)C(=O)/C(=C/c2ccc(C)cc2)C1,4.9

# Test system: HSC-3
# Experiment: Cytotoxicity against human HSC3 cells
# Format: functional
row,SMILES,CC50 [µM]
1,O=C1/C(=C/c2ccccc2)CN(P(=O)(O)O)C/C1=C\c1ccccc1,0.98
2,COc1ccc(/C=C2\CN(P(=O)(O)O)C/C(=C\c3ccc(OC)cc3)C2=O)cc1,2.2
3,CCOP(=O)(OCC)N1C/C(=C\c2ccc(OC)c(OC)c2)C(=O)/C(=C/c2ccc(OC)c(OC)c2)C1,1.4
4,O=C1/C(=C/c2ccccc2[N+](=O)[O-])CN(P(=O)(O)O)C/C1=C\c1ccccc1[N+](=O)[O-],0.32
5,CCOP(=O)(OCC)N1C/C(=C\c2ccc(C)cc2)C(=O)/C(=C/c2ccc(C)cc2)C1,4.1

# Test system: HSC-2
# Experiment: Selectivity index, ratio of CC50 for normal cells to CC50 for human HSC2 cells
# Format: functional
row,SMILES,Selectivity Index
1,O=C1/C(=C/c2ccccc2)CN(P(=O)(O)O)C/C1=C\c1ccccc1,7.4
2,COc1ccc(/C=C2\CN(P(=O)(O)O)C/C(=C\c3ccc(OC)cc3)C2=O)cc1,40
3,CCOP(=O)(OCC)N1C/C(=C\c2ccc(OC)c(OC)c2)C(=O)/C(=C/c2ccc(OC)c(OC)c2)C1,3.7
4,O=C1/C(=C/c2ccccc2[N+](=O)[O-])CN(P(=O)(O)O)C/C1=C\c1ccccc1[N+](=O)[O-],13
5,CCOP(=O)(OCC)N1C/C(=C\c2ccc(C)cc2)C(=O)/C(=C/c2ccc(C)cc2)C1,4.5

# Test system: not listed separately
# Experiment: Cytotoxicity against human HPC cells
# Format: cell-based
row,SMILES,CC50 [µM]
1,O=C1/C(=C/c2ccccc2)CN(P(=O)(O)O)C/C1=C\c1ccccc1,3.2
2,COc1ccc(/C=C2\CN(P(=O)(O)O)C/C(=C\c3ccc(OC)cc3)C2=O)cc1,54
3,CCOP(=O)(OCC)N1C/C(=C\c2ccc(OC)c(OC)c2)C(=O)/C(=C/c2ccc(OC)c(OC)c2)C1,6.2
4,O=C1/C(=C/c2ccccc2[N+](=O)[O-])CN(P(=O)(O)O)C/C1=C\c1ccccc1[N+](=O)[O-],2.1
5,CCOP(=O)(OCC)N1C/C(=C\c2ccc(C)cc2)C(=O)/C(=C/c2ccc(C)cc2)C1,18

# Test system: HL-60
# Experiment: Cytotoxicity against human HL60 cells
# Format: functional
row,SMILES,CC50 [µM]
1,O=C1/C(=C/c2ccccc2)CN(P(=O)(O)O)C/C1=C\c1ccccc1,0.46
2,COc1ccc(/C=C2\CN(P(=O)(O)O)C/C(=C\c3ccc(OC)cc3)C2=O)cc1,5.6
3,CCOP(=O)(OCC)N1C/C(=C\c2ccc(OC)c(OC)c2)C(=O)/C(=C/c2ccc(OC)c(OC)c2)C1,0.75
4,O=C1/C(=C/c2ccccc2[N+](=O)[O-])CN(P(=O)(O)O)C/C1=C\c1ccccc1[N+](=O)[O-],0.07
5,CCOP(=O)(OCC)N1C/C(=C\c2ccc(C)cc2)C(=O)/C(=C/c2ccc(C)cc2)C1,3.3

# Test system: not listed separately
# Experiment: Cytotoxicity against human HGF cells
# Format: cell-based
row,SMILES,CC50 [µM]
1,O=C1/C(=C/c2ccccc2)CN(P(=O)(O)O)C/C1=C\c1ccccc1,6.9
2,COc1ccc(/C=C2\CN(P(=O)(O)O)C/C(=C\c3ccc(OC)cc3)C2=O)cc1,107
3,CCOP(=O)(OCC)N1C/C(=C\c2ccc(OC)c(OC)c2)C(=O)/C(=C/c2ccc(OC)c(OC)c2)C1,7.4
4,O=C1/C(=C/c2ccccc2[N+](=O)[O-])CN(P(=O)(O)O)C/C1=C\c1ccccc1[N+](=O)[O-],1.4
5,CCOP(=O)(OCC)N1C/C(=C\c2ccc(C)cc2)C(=O)/C(=C/c2ccc(C)cc2)C1,28

# Test system: HSC-4
# Experiment: Cytotoxicity against human HSC4 cells
# Format: functional
row,SMILES,CC50 [µM]
1,O=C1/C(=C/c2ccccc2)CN(P(=O)(O)O)C/C1=C\c1ccccc1,0.57
2,COc1ccc(/C=C2\CN(P(=O)(O)O)C/C(=C\c3ccc(OC)cc3)C2=O)cc1,3.9
3,CCOP(=O)(OCC)N1C/C(=C\c2ccc(OC)c(OC)c2)C(=O)/C(=C/c2ccc(OC)c(OC)c2)C1,0.5
4,O=C1/C(=C/c2ccccc2[N+](=O)[O-])CN(P(=O)(O)O)C/C1=C\c1ccccc1[N+](=O)[O-],0.1
5,CCOP(=O)(OCC)N1C/C(=C\c2ccc(C)cc2)C(=O)/C(=C/c2ccc(C)cc2)C1,4.6
